Test results from article PMC8985489 (Alzheimer's & Dementia : Translational Research & Clinical …, 2022).

Columns and labels:
[1] = target: Human Recombinant IDO-1 (Homo sapiens, UniProt P14902); test: HR-IDO-1 enzymatic inhibition assay; format: biochemical
[2] = target: biotinylated Aβ1-42 (Homo sapiens, UniProt P05067); test: Aβ anti-oligomerization assay; format: biochemical
[3] = target: INF-γ-induced IDO-1 activity (Homo sapiens, UniProt P14902); test: INF-γ-induced IDO-1 activity; format: cell-based
Chain of INF-γ-induced IDO-1 activity (P14902 whole entry): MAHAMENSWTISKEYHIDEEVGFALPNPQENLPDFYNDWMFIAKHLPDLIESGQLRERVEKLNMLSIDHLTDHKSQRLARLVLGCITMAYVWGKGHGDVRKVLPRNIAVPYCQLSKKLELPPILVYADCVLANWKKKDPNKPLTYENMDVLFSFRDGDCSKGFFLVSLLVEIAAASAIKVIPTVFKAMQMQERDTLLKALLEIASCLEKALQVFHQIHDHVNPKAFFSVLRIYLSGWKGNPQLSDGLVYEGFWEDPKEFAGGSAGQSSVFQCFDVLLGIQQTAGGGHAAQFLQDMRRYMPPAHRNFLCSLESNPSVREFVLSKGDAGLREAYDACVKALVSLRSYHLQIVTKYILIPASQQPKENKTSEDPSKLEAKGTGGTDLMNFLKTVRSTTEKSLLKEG

[4] = target: T1, Aβ1-40 (Homo sapiens, UniProt P05067); test: Circular dichroism; format: biochemical
T1 sequence (P05067 672-711 limits assumed): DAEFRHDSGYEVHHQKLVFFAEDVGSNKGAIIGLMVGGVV

[5] = target: T1, Aβ1-40; test: Thioflavin T; format: biochemical
[6] = system: IL-1β production and release from microglia; test: IL-1β production and release from microglia; format: cell-based; details: at 50 and 100 μM
[7] = system: IDO-1; details: cited from earlier work
[8] = system: SK-N-AS neuroblastoma cells; test: Aβ production in mammalian cells; format: cell-based, human; details: SK-N-AS incubated with 1 μg/ml, within 3 h

Chain of biotinylated Aβ1-42 (P05067 672-713): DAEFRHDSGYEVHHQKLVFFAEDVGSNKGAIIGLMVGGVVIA
Chain of Human Recombinant IDO-1 (P14902 whole entry): as the sequence (P14902 whole entry) above

Row | Aβ anti-aggregant activity in CD assay [4] | Aβ anti-aggregant activity in ThT assay [5] | Compound | also measured
1 | exhibited Aβ anti‐aggregant activities | exhibited Aβ anti‐aggregant activities | O=C(O)/C=C/c1ccc(O)c(O)c1 [caffeiate] | –
2 | exhibited Aβ anti‐aggregant activities | exhibited Aβ anti‐aggregant activities | COc1cc(/C=C/C(=O)O)ccc1O [ferulate] | IDO-1 enzymatic activity [7]: shown to inhibit IDO‐1 enzymatic activity
3 | exhibited Aβ anti‐aggregant activities | exhibited Aβ anti‐aggregant activities | Oc1ccc(/C=C/c2cc(O)cc(O)c2)cc1 [resveratrol] | –
4 | exhibited Aβ anti‐aggregant activities | exhibited Aβ anti‐aggregant activities | O=C(O)c1ccccc1O [salicylate] | –
5 | exhibited Aβ anti‐aggregant activities | exhibited Aβ anti‐aggregant activities | COc1cc(/C=C/C(=O)O)cc(OC)c1O [sinapate] | –
6 | exhibited Aβ anti‐aggregant activities | exhibited Aβ anti‐aggregant activities | tannate | –

More lines, now with the values behind:

Row | Compound | Aβ anti-aggregant activity in CD assay [4] | Aβ anti-aggregant activity in ThT assay [5] | also measured
7 | COc1ccc2[nH]cc(/C=C/c3ccc(O)cc3)c2c1 [4b, (E)‐4‐(2‐[5‐methoxy‐1H‐indol‐3‐yl]vinyl)phenol] | – | – | IC50 [1]: 2.8 µM; IC50 [2]: 6.5 µM; IC50 [3]: 10.8 µM
8 | O=C(O)/C=C/c1ccc(O)cc1 [4‐coumarate] | exhibited Aβ anti‐aggregant activities | exhibited Aβ anti‐aggregant activities | –
9 | NCCc1c[nH]c2ccc(O)cc12 [5‐hydroxytryptamine] | – | – | IL-1β production and release from microglia [6]: modulated
10 | N[C@@H](Cc1c[nH]c2ccccc12)C(=O)O [tryptophan] | – | – | activity in initial screen against Aβ aggregation ([2]; biotinylated Aβ1-42 anti-oligomerization screen): inactive; activity in initial screen against Aβ aggregation ([5]; kinetic ThT Aβ1-40 anti-aggregation screen): inactive
11 | lipopolysaccharide [LPS] | – | – | Aβ concentrations in the cell lysate [8]: 800 pg/mL
12 | lipoteichoic acid [LTA] | – | – | Aβ concentrations in the cell lysate [8]: 800 pg/mL
